One may read the microsomal CLint as the capacity of the preparation to metabolise the compound, expressed as a volume cleared per time. What is called half-life is the time in which the quantity being followed falls by half.

In brackets after ≈: the same amount, converted by molar mass.

System in the first data set: not listed separately
The data set can be described thus: in vitro. The conditions noted are these: mouse, liver microsomes. For orientation: Liver microsomes are vesicles of endoplasmic reticulum, rich in cytochrome P450 enzymes.
As to `COc1ccc2c(c1)[C@]13CCCC[C@@H]1[C@H](C2)N(C)CC3` [Dextromethorphan], the microsomal CLint turned out to be 179 µL/min/mg. The same measure, in the same setting: the result for `O=C(O)Cc1ccccc1Nc1c(Cl)cccc1Cl` [Diclofenac] reads 121 µL/min/mg; that for `COc1ccc2[nH]c([S+]([O-])Cc3ncc(C)c(OC)c3C)nc2c1` (centres unmarked) [Omeprazole], 143 µL/min/mg.

System in another data set: not listed separately
The data set can be described thus: in vitro. Conditions: mouse, liver microsomes. This is another data set of the same source.
The molecule `COc1ccc2c(c1)[C@]13CCCC[C@@H]1[C@H](C2)N(C)CC3` [Dextromethorphan] yielded a half-life of 7.7 min. `O=C(O)Cc1ccccc1Nc1c(Cl)cccc1Cl` [Diclofenac] returned a half-life of 11.5 min.

Regarding `COc1ccc2[nH]c([S+]([O-])Cc3ncc(C)c(OC)c3C)nc2c1` (centres unmarked) [Omeprazole], the half-life amounted to 9.7 min.

For another data set, the system named is S. aureus ATCC 29213. The data set can be described thus: microbe, parasite or virus in culture. Conditions: Staphylococcus aureus, ATCC29213, read-out: MIC (µg/mL).
For `CCCCOc1ccc(C(=O)NNC(=S)NC(C)=O)cc1` [1a], the MIC came to 1.56 µg/mL (≈ 5.04 µM). In the case of `CCCCCCOc1ccc(C(=O)NNC(=S)NC(C)=O)cc1` [1c, N-(2-(4-(n-hexoxy)benzoyl)hydrazine-1-carbonothioyl)acetamide], the MIC is 1.56 µg/mL (≈ 4.62 µM).

With `CCCCCCCCCCCOc1ccc(C(=O)NNC(=S)NC(C)=O)cc1` [1d], the MIC is 100 µg/mL (≈ 245 µM). Same read-out and setting: the result for `CC(=O)NC(=S)NNC(=O)c1ccc(OCCCC(C)C)cc1` [1e] reads 3.12 µg/mL (≈ 9.25 µM). The same measure, in the same setting: the result for `COCCCOc1ccc(C(=O)NNC(=S)NC(C)=O)cc1` [1f] reads more than 100 µg/mL; that for `CCCCCOc1ccc(C(=O)NNC(=S)NC(C)=O)cc1OCCCCC` [1h], 6.25 µg/mL (≈ 15.3 µM); that for `CCCCCOc1ccc(C(=O)NNC(=S)NC(C)=O)cc1O` [1i], 25 µg/mL (≈ 73.7 µM). The same measure, in the same setting: the result for `CC(=O)NC(=S)NNC(=O)c1ccc(O)c(O)c1` [1j] reads 100 µg/mL (≈ 371 µM); that for `CCCCCOc1ccc(C(=O)NNC(=S)NC(C)=O)c(C)c1` [1k], 3.12 µg/mL (≈ 9.25 µM). Regarding `CC(=O)NC(=S)NNC(=O)c1ccc(OC2CCCCC2)cc1` [1m], the MIC turned out to be 1.56 µg/mL (≈ 4.65 µM). On the same count and under the same terms, the result for `CC(=O)NC(=S)NNC(=O)c1ccc(Oc2ccccc2)cc1` [1n] reads 3.12 µg/mL (≈ 9.47 µM); that for `CCCCCOc1ccc(C(=O)NNC(=S)NC(C)=O)nc1` [1o], 25 µg/mL (≈ 77.1 µM); that for `CCCCCOc1ccc(CC(=O)NNC(=S)NC(C)=O)cc1` [1p], 25 µg/mL (≈ 74.1 µM). Same read-out and setting: the result for `CCCCCOc1ccc(CCC(=O)NNC(=S)NC(C)=O)cc1` [1q] reads more than 100 µg/mL. The same measure, in the same setting: the result for `CC(=O)NC(=S)NNC(=O)c1ccc(-c2ccccc2)cc1` [1r] reads 1.56 µg/mL (≈ 4.98 µM); that for `CC(=O)NC(=S)NNC(=O)c1cccc(-c2ccccc2)c1` [1s], 3.12 µg/mL (≈ 9.96 µM).

As for `CC(=O)NC(=S)NNC(=O)c1ccc2ccccc2c1` [1t], the MIC came out at 6.25 µg/mL (≈ 21.8 µM). Same read-out and setting: the result for `CC(=O)NC(=S)NNC(=O)c1ccc(C2CC2)cc1` [1u] reads 3.12 µg/mL (≈ 11.2 µM).

On to `CC(=O)NC(=S)NNC(=O)c1ccc(C2CCCCC2)cc1` [1v, N-(2-(4-cyclohexylbenzoyl)hydrazine-1-carbonothioyl)acetamide], for which the MIC was found to be 0.39 µg/mL (≈ 1.22 µM). Same read-out and setting: the result for `CCC1CCC(c2ccc(C(=O)NNC(=S)NC(C)=O)cc2)CC1` (centres unmarked) [1w, N-(2-(4-(4-ethylcyclohexyl)benzoyl)hydrazine-1-carbonothioyl)acetamide] reads 0.2 µg/mL (≈ 0.576 µM); that for `CC(=O)NC(=S)NNC(=O)c1ccc(N2CCOCC2)cc1` [1x], 100 µg/mL (≈ 310 µM); that for `CCCOc1ccc(C(=O)NNC(=S)NC(C)=O)cc1` [B5], 6.25 µg/mL (≈ 21.2 µM).

System in another data set: not listed separately
The data set can be described thus: in vitro. The conditions noted are these: mouse, plasma.
In the case of `CC(C)[N+](C)(CCOC(=O)C1c2ccccc2Oc2ccccc21)C(C)C` [Propantheline bromide], the half-life was found to be 38.3 min.

(Values after article doi:10.1101/2024.09.05.611349v1 (biorxiv, 2024).)
